According to patent publication US20240158446A1, “CYCLIC COMPOUND HAVING SELECTIVE INHIBITORY ACTION ON KRAS OVER HRAS AND NRAS” (CHUGAI SEIYAKU KABUSHIKI KAISHA, priority 2021, published 2024):
Where two headings read alike, the source gives them in different places. Blank lines part the entries; values can stand above or below the compound they belong to. Where a SMILES comes first, the peptide text is derived from it. Bridges are numbered along the chain shown (N, C = ends). [ ]: non-standard residue; d: D form. The star is where a group is joined. hPhe(3-Cl-4-CF3) = N[C@@H](CCc1ccc(C(F)(F)F)c(Cl)c1)C(=O)O; NPrPhe(4-CF3) = CCCN[C@@H](Cc1ccc(C(F)(F)F)cc1)C(=O)O; NMeGly(cPent) = CN[C@H](C(=O)O)C1CCCC1; Hyp = O=C(O)[C@@H]1C[C@@H](O)CN1; NMeD = CN[C@@H](CC(=O)O)C(=O)O; NMeL = CN[C@@H](CC(C)C)C(=O)O; Morpholide = C1CN(*)CCO1; NAllylGly = C=CCNCC(=O)O; Ac5c = NC1(C(=O)O)CCCC1; Aze = O=C(O)[C@@H]1CCN1; Sar = CNCC(=O)O

How the values were obtained:
[1] = target: GDP-bound HRAS wild-type protein (Homo sapiens, UniProt P01112); test: Binding to HRAS by surface plasmon resonance (SPR), Single Cycle Kinetics; settings: for HRAS/KRAS (ratio of KD value with respect to GDP-bound HRAS wild-type protein to KD value with respect to KRAS): SPR KD ratio HRAS/KRAS, class symbols; for HRAS/KRAS (ratio of KD value for HRAS to KD value for KRAS) / HRAS/KRAS (ratio of KD value with respect to HRAS to KD value with respect to KRAS): SPR, GDP-bound HRAS wild-type protein vs GDP-bound KRAS wild-type protein
[2] = target: GDP-bound KRAS wild-type protein (Homo sapiens, UniProt P01116); test: Binding to KRAS by surface plasmon resonance (SPR), Single Cycle Kinetics; settings: GDP-bound KRAS wild-type protein, read-out: KRAS KD
[3] = target: GDP-bound NRAS wild-type protein (Homo sapiens, UniProt P01111); test: Binding to NRAS by surface plasmon resonance (SPR), Single Cycle Kinetics; settings: for NRAS/KRAS (ratio of KD value with respect to GDP-bound NRAS wild-type protein to KD value with respect to KRAS): SPR KD ratio NRAS/KRAS, class symbols; for NRAS/KRAS (ratio of KD value for NRAS to KD value for KRAS) / NRAS/KRAS (ratio of KD value with respect to NRAS to KD value with respect to KRAS): SPR, GDP-bound NRAS wild-type protein vs GDP-bound KRAS wild-type protein
[4] = SPR Single Cycle Kinetics, 1:1 binding model
[5] = SPR, Single Cycle Kinetics, 1:1 binding model

Chain of GDP-bound KRAS wild-type protein (P01116 whole entry): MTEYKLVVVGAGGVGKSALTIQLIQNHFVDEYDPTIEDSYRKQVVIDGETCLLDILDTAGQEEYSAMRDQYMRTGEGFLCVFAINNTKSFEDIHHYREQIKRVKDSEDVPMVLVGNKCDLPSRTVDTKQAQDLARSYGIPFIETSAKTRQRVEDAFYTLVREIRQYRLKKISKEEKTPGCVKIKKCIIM
Chain of GDP-bound HRAS wild-type protein (P01112 whole entry): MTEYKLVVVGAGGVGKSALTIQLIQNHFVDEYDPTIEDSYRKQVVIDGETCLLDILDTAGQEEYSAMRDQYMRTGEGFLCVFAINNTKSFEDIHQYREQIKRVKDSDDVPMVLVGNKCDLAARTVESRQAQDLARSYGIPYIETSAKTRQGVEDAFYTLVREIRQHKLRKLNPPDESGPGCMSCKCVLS
Chain of GDP-bound NRAS wild-type protein (P01111 whole entry): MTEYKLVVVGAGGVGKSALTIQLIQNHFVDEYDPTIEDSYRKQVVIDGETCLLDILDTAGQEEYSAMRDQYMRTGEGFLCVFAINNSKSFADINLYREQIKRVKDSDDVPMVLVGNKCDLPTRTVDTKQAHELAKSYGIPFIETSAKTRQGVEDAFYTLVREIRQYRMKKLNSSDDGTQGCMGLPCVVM

Kd [2, 4]: 0.095 nM
Structure (SMILES): CCO[C@@H]1C[C@H]2C(=O)NC3(CC(C)(C)C3)C(=O)N(C)[C@@H](C3CCCC3)C(=O)N(C)[C@H](C(=O)N(C)CC)CC(=O)N(C)[C@@H](CC(C)C)C(=O)N[C@@H]([C@@H](C)CC)C(=O)N(C)CC(=O)N(C)[C@H]3C/C=C\CCN(C3=O)[C@@H](Cc3ccc(C(F)F)cc3)C(=O)N(C)CC(=O)N[C@@H](CCc3ccc(C(F)(F)F)c(Cl)c3)C(=O)N2C1 [PP2829]
HRAS/KRAS (ratio of KD value with respect to GDP-bound HRAS wild-type protein to KD value with respect to KRAS) [1]: A (a compound having 10 or more and less than 20 is denoted as A)
NRAS/KRAS (ratio of KD value with respect to GDP-bound NRAS wild-type protein to KD value with respect to KRAS) [3]: A (a compound having 10 or more and less than 20 is denoted as A)

Kd [2, 5]: 2.6 nM
Structure (SMILES): CCO[C@@H]1C[C@H]2C(=O)NC3(CCC3)C(=O)N(C)[C@@H](C(CC)CC)C(=O)N(C)[C@H](C)CC(=O)N(C)[C@@H](CC3CC3)C(=O)N[C@@H]([C@@H](C)CC)C(=O)N(C)CC(=O)N(C)[C@H]3C/C=C\CCN(C3=O)[C@@H](Cc3ccc(F)cc3)C(=O)N(C)CC(=O)N[C@@H](CCc3cc(F)c(C(F)(F)F)c(F)c3)C(=O)N2C1 [PP1521]
HRAS/KRAS (ratio of KD value for HRAS to KD value for KRAS) ([1]; KD ratio class): B (a compound having 3 or more and less than 10 is denoted as B)
NRAS/KRAS (ratio of KD value for NRAS to KD value for KRAS) ([3]; KD ratio class): A (a compound having 10 or more and less than 20 is denoted as A)

Kd [2, 5]: 0.11 nM
Structure (SMILES): CCO[C@@H]1C[C@H]2C(=O)NC3(CCC3)C(=O)N(C)[C@@H](C3CCCC3)C(=O)N(C)[C@H](C(=O)N(C)CCOC)CC(=O)N(C)[C@@H](CC3CC3)C(=O)N[C@@H]([C@@H](C)CC)C(=O)N(C)CC(=O)N(C)[C@H]3C/C=C\CCN(C3=O)[C@@H](Cc3ccc(C(F)(F)F)cc3)C(=O)N(C)CC(=O)N[C@@H](CCc3ccc(C(F)(F)F)c(OC)c3)C(=O)N2C1 [PP1327]
HRAS/KRAS (ratio of KD value for HRAS to KD value for KRAS) ([1]; KD ratio class): A (a compound having 10 or more and less than 20 is denoted as A)
NRAS/KRAS (ratio of KD value for NRAS to KD value for KRAS) ([3]; KD ratio class): A (a compound having 10 or more and less than 20 is denoted as A)

Kd [2, 4]: 0.59 nM
Structure (SMILES): C=CCN1CC(=O)N(C)CC(=O)N(CCC)[C@@H](Cc2ccc(C(F)(F)F)cc2)C(=O)N(C)CC(=O)N[C@@H](CCc2ccc(C(F)(F)F)c(Cl)c2)C(=O)N2CCC[C@H]2C(=O)NC2(CCCC2)C(=O)N(C)[C@@H](C2CCCC2)C(=O)N(C)[C@H](C(=O)N2CCOCC2)CC(=O)N(C)[C@@H](CC(C)C)C(=O)N[C@@H]([C@@H](C)CC)C1=O [PP0749] ([NMeL]I[NAllylGly][Sar][NPrPhe(4-CF3)][Sar][hPhe(3-Cl-4-CF3)]P[Ac5c][NMeGly(cPent)][NMeD]-Morpholide; lactam N-11)
HRAS/KRAS (ratio of KD value with respect to HRAS to KD value with respect to KRAS) [1]: C (A compound having a KD ratio of 0.1 or more and less than 3 is denoted as C)
NRAS/KRAS (ratio of KD value with respect to NRAS to KD value with respect to KRAS) [3]: B (a compound having 3 or more and less than 10 is denoted as B)

Kd [2, 4]: 0.39 nM
Structure (SMILES): CCCN1C(=O)CN(C)C(=O)CN(C)C(=O)[C@H]([C@@H](C)CC)NC(=O)[C@H](CC(C)C)N(C)C(=O)C[C@@H](C(=O)N2CCOCC2)N(C)C(=O)[C@H](C2CCCC2)N(C)C(=O)C2(CCCC2)NC(=O)[C@@H]2CCN2C(=O)[C@H](CCc2ccc(C(F)(F)F)c(Cl)c2)NC(=O)CN(C)C(=O)[C@@H]1Cc1ccc(C(F)(F)F)cc1 [PP0260] ([NMeL]I[Sar][Sar][NPrPhe(4-CF3)][Sar][hPhe(3-Cl-4-CF3)][Aze][Ac5c][NMeGly(cPent)][NMeD]-Morpholide; lactam N-11)
HRAS/KRAS (ratio of KD value for HRAS to KD value for KRAS) [1]: C (A compound having a KD ratio of 0.1 or more and less than 3 is denoted as C)
NRAS/KRAS (ratio of KD value for NRAS to KD value for KRAS) [3]: B (a compound having 3 or more and less than 10 is denoted as B)

Kd [2, 4]: 3.6 nM
Structure (SMILES): CCO[C@@H]1C[C@H]2C(=O)NC3(CCC3)C(=O)N(C)[C@@H](C3CCCC3)C(=O)N(C)[C@H](C(=O)N(C)C)CC(=O)N(C)C[C@@H](C)C(=O)N[C@@H]([C@@H](C)CC)C(=O)N(C)CC(=O)N(C)[C@H]3CCCCN(C3=O)[C@@H](Cc3ccc(C(F)(F)F)cc3)C(=O)N(C)CC(=O)N[C@@H](CCc3cc(F)c(C(F)(F)F)c(F)c3)C(=O)N2C1 [PP0706]
HRAS/KRAS (ratio of KD value with respect to HRAS to KD value with respect to KRAS) [1]: B (a compound having 3 or more and less than 10 is denoted as B)
NRAS/KRAS (ratio of KD value with respect to NRAS to KD value with respect to KRAS) [3]: B (a compound having 3 or more and less than 10 is denoted as B)

More lines, now with the values behind:

Structure (SMILES): CCO[C@@H]1C[C@H]2C(=O)NC3(CCC3)C(=O)N(C)[C@@H](C3CCCC3)C(=O)N(C)[C@H](C(=O)N(C)CCOC)CC(=O)N(C)[C@@H](CC)C(=O)N[C@@H]([C@@H](C)CC)C(=O)N(C)CC(=O)N(C)[C@H]3C/C=C\CCN(C3=O)[C@@H](Cc3ccc(C(F)(F)F)cc3)C(=O)N(C)CC(=O)N[C@@H](CCc3cc(F)c(C(F)(F)F)c(F)c3)C(=O)N2C1 [PP1316, (2S,8S,12R,14S,20S,23S,27S,30S,36S,38Z)-20-cyclopentyl-8-[2-[3,5-difluoro-4-(trifluoromethyl)phenyl]ethyl]-12-ethoxy-27-ethyl-N-(2-methoxyethyl)-N,4,19,22,26,32,35-heptamethyl-30-[(1S)-1-methylpropyl]-3,6,9,15,18,21,25,28,31,34,42-undecaoxo-2-[[4-(trifluoromethyl)phenyl]methyl]spiro[1,4,7,10,16,19,22,26,29,32,35-undecazatricyclo[34.5.1.0^10,14]dotetracont-38-ene-17,1′-cyclobutane]-23-carboxamide]
HRAS/KRAS (ratio of KD value for HRAS to KD value for KRAS) ([1]; KD ratio class): A (a compound having 10 or more and less than 20 is denoted as A)
Kd [2, 5]: 0.072 nM
NRAS/KRAS (ratio of KD value for NRAS to KD value for KRAS) ([3]; KD ratio class): A (a compound having 10 or more and less than 20 is denoted as A)

Structure (SMILES): CCO[C@@H]1C[C@H]2C(=O)NC3(CCC3)C(=O)N(C)[C@@H](C3CCCC3)C(=O)N(C)[C@H](C(=O)N(C)C)CC(=O)N(C)[C@@H](COC)C(=O)N[C@@H]([C@@H](C)CC)C(=O)N(C)CC(=O)N(C)[C@H]3C/C=C\CCN(C3=O)[C@@H](Cc3ccc(C(F)(F)F)cc3)C(=O)N(C)CC(=O)N[C@@H](CCc3cc(F)c(C(F)(F)F)c(F)c3)C(=O)N2C1 [PP1113, (2S,8S,12R,14S,20S,23S,27S,30S,36S,38Z)-20-cyclopentyl-8-[2-[3,5-difluoro-4-(trifluoromethyl)phenyl]ethyl]-12-ethoxy-27-(methoxymethyl)-N,N,4,19,22,26,32,35-octamethyl-30-[(1S)-1-methylpropyl]-3,6,9,15,18,21,25,28,31,34,42-undecaoxo-2-[[4-(trifluoromethyl)phenyl]methyl]spiro[1,4,7,10,16,19,22,26,29,32,35-undecazatricyclo[34.5.1.0^10,14]dotetracont-38-ene-17,1′-cyclobutane]-23-carboxamide]
HRAS/KRAS (ratio of KD value for HRAS to KD value for KRAS) [1]: A (a compound having 10 or more and less than 20 is denoted as A)
Kd ([2]; SPR, Single Cycle Kinetics): 0.031 nM
NRAS/KRAS (ratio of KD value for NRAS to KD value for KRAS) [3]: A (a compound having 10 or more and less than 20 is denoted as A)

Structure (SMILES): CCO[C@@H]1C[C@H]2C(=O)NC3(CC(C)(C)C3)C(=O)N(C)[C@@H](C3CCCC3)C(=O)N(C)[C@H](C(=O)N3CCCCC3)CC(=O)N(C)[C@H]3CCC/C=C/c4ccc(cc4)C[C@@H](C(=O)N(C)CC(=O)N[C@@H](CCc4cc(F)c(C(F)(F)F)c(F)c4)C(=O)N2C1)N1CC/C=C\C[C@@H](C1=O)N(C)C(=O)CN(C)C(=O)[C@H]([C@@H](C)CC)NC3=O [PP2573]
HRAS/KRAS (ratio of KD value with respect to GDP-bound HRAS wild-type protein to KD value with respect to KRAS) [1]: A (a compound having 10 or more and less than 20 is denoted as A)
Kd [2, 4]: 0.1 nM
NRAS/KRAS (ratio of KD value with respect to GDP-bound NRAS wild-type protein to KD value with respect to KRAS) [3]: A (a compound having 10 or more and less than 20 is denoted as A)

Structure (SMILES): CCCN1CC(=O)N(C)[C@H]2C/C=C\CCN(C2=O)[C@@H](Cc2ccc(C(F)(F)F)cc2)C(=O)N(C)CC(=O)N[C@@H](CCc2cc(F)c(C(F)(F)F)c(F)c2)C(=O)N2C[C@H](OCC)C[C@H]2C(=O)NC2(CCC2)C(=O)N(C)[C@@H](C2CCCC2)C(=O)N(C)[C@H](C(=O)N(C)C)CC(=O)N(C)[C@@H](CC)C(=O)N[C@@H]([C@@H](C)CC)C1=O [PP1053]
HRAS/KRAS (ratio of KD value for HRAS to KD value for KRAS) [1]: A (a compound having 10 or more and less than 20 is denoted as A)
Kd ([2]; SPR, Single Cycle Kinetics): 0.23 nM
NRAS/KRAS (ratio of KD value for NRAS to KD value for KRAS) [3]: A (a compound having 10 or more and less than 20 is denoted as A)

Structure (SMILES): CCCN1C(=O)CN(C)C(=O)[C@@H]2CCN2C(=O)[C@H]([C@@H](C)CC)NC(=O)[C@H](CC(C)C)N(C)C(=O)C[C@@H](C(=O)N(C)C)N(C)C(=O)[C@H](C2CCCC2)N(C)C(=O)C2(CCCC2)NC(=O)[C@@H]2C[C@@H](OCC)CN2C(=O)[C@H](CCc2ccc(C(F)(F)F)c(Cl)c2)NC(=O)CN(C)C(=O)[C@@H]1Cc1ccc(C(F)(F)F)cc1 [PP0433] ([NMeL]I[Aze][Sar][NPrPhe(4-CF3)][Sar][hPhe(3-Cl-4-CF3)][Hyp](Et)[Ac5c][NMeGly(cPent)][NMeD]-NMe2; lactam N-11)
HRAS/KRAS (ratio of KD value with respect to HRAS to KD value with respect to KRAS) [1]: B (a compound having 3 or more and less than 10 is denoted as B)
Kd [2, 4]: 0.15 nM
NRAS/KRAS (ratio of KD value with respect to NRAS to KD value with respect to KRAS) [3]: B (a compound having 3 or more and less than 10 is denoted as B)
